Conditions: Liquid; for speed of sound: Frequency=3 MHz, Single path-length method; for mass density: Vibrating tube method

C[S+](C)[O-] [dimethyl sulfoxide]
Conditions | mass density [kg/m3] | speed of sound [m/s]
293.15 K, 100 kPa | 1100.4 | 1502
293.15 K, 500 kPa | 1100 | –
293.15 K, 1000 kPa | 1101 | –
293.15 K, 2500 kPa | 1102 | –
293.15 K, 5000 kPa | 1103 | –
293.15 K, 7500 kPa | 1104 | –
293.15 K, 10000 kPa | 1106 | –
293.15 K, 12500 kPa | 1107 | –
293.15 K, 15000 kPa | 1108 | –
293.15 K, 17500 kPa | 1110 | –
293.15 K, 20000 kPa | 1111 | –
293.15 K, 22500 kPa | 1112 | –
293.15 K, 25000 kPa | 1114 | –
293.15 K, 27500 kPa | 1115 | –
293.15 K, 30000 kPa | 1116 | –
293.15 K, 32500 kPa | 1117 | –
293.15 K, 35000 kPa | 1119 | –
293.15 K, 37500 kPa | 1120 | –
298.15 K, 100 kPa | 1095.4 | 1485
298.15 K, 500 kPa | 1095 | –
298.15 K, 1000 kPa | 1096 | –
298.15 K, 2500 kPa | 1096 | –
298.15 K, 5000 kPa | 1098 | –
298.15 K, 7500 kPa | 1099 | –
298.15 K, 10000 kPa | 1101 | –
298.15 K, 12500 kPa | 1102 | –
298.15 K, 15000 kPa | 1103 | –
298.15 K, 17500 kPa | 1105 | –
298.15 K, 20000 kPa | 1106 | –
298.15 K, 22500 kPa | 1107 | –
298.15 K, 25000 kPa | 1109 | –
298.15 K, 27500 kPa | 1110 | –
298.15 K, 30000 kPa | 1111 | –
298.15 K, 32500 kPa | 1113 | –
298.15 K, 35000 kPa | 1114 | –
298.15 K, 37500 kPa | 1115 | –
313.15 K, 100 kPa | 1080.3 | 1435
313.15 K, 500 kPa | 1080 | –
313.15 K, 1000 kPa | 1080 | –
313.15 K, 2500 kPa | 1081 | –
313.15 K, 5000 kPa | 1083 | –
313.15 K, 7500 kPa | 1084 | –
313.15 K, 10000 kPa | 1086 | –
313.15 K, 12500 kPa | 1087 | –
313.15 K, 15000 kPa | 1089 | –
313.15 K, 17500 kPa | 1090 | –
313.15 K, 20000 kPa | 1092 | –
313.15 K, 22500 kPa | 1093 | –
313.15 K, 25000 kPa | 1095 | –
313.15 K, 27500 kPa | 1096 | –
313.15 K, 30000 kPa | 1097 | –
313.15 K, 32500 kPa | 1099 | –
313.15 K, 35000 kPa | 1100 | –
313.15 K, 37500 kPa | 1101 | –
333.15 K, 100 kPa | 1060.2 | 1368
333.15 K, 500 kPa | 1060 | –
333.15 K, 1000 kPa | 1060 | –
333.15 K, 2500 kPa | 1061 | –
333.15 K, 5000 kPa | 1063 | –
333.15 K, 7500 kPa | 1065 | –
333.15 K, 10000 kPa | 1066 | –
333.15 K, 12500 kPa | 1068 | –
333.15 K, 15000 kPa | 1070 | –
333.15 K, 17500 kPa | 1071 | –
333.15 K, 20000 kPa | 1073 | –
333.15 K, 22500 kPa | 1074 | –
333.15 K, 25000 kPa | 1076 | –
333.15 K, 27500 kPa | 1077 | –
333.15 K, 30000 kPa | 1079 | –
333.15 K, 32500 kPa | 1080 | –
333.15 K, 35000 kPa | 1082 | –
333.15 K, 37500 kPa | 1083 | –
353.15 K, 500 kPa | 1040 | –
353.15 K, 1000 kPa | 1040 | –
353.15 K, 2500 kPa | 1042 | –
353.15 K, 5000 kPa | 1043 | –
353.15 K, 7500 kPa | 1045 | –
353.15 K, 10000 kPa | 1047 | –
353.15 K, 12500 kPa | 1049 | –
353.15 K, 15000 kPa | 1050 | –
353.15 K, 17500 kPa | 1052 | –
353.15 K, 20000 kPa | 1054 | –
353.15 K, 22500 kPa | 1055 | –
353.15 K, 25000 kPa | 1057 | –
353.15 K, 27500 kPa | 1059 | –
353.15 K, 30000 kPa | 1060 | –
353.15 K, 32500 kPa | 1062 | –
353.15 K, 35000 kPa | 1063 | –
353.15 K, 37500 kPa | 1065 | –
373.15 K, 500 kPa | 1020 | –
373.15 K, 1000 kPa | 1020 | –
373.15 K, 2500 kPa | 1022 | –
373.15 K, 5000 kPa | 1024 | –
373.15 K, 7500 kPa | 1026 | –
373.15 K, 10000 kPa | 1027 | –
373.15 K, 12500 kPa | 1029 | –
373.15 K, 15000 kPa | 1031 | –
373.15 K, 17500 kPa | 1033 | –
373.15 K, 20000 kPa | 1035 | –
373.15 K, 22500 kPa | 1037 | –
373.15 K, 25000 kPa | 1038 | –
373.15 K, 27500 kPa | 1040 | –
373.15 K, 30000 kPa | 1042 | –
373.15 K, 32500 kPa | 1044 | –
373.15 K, 35000 kPa | 1045 | –
373.15 K, 37500 kPa | 1047 | –
393.15 K, 500 kPa | 999 | –
393.15 K, 1000 kPa | 1000 | –
393.15 K, 2500 kPa | 1001 | –
393.15 K, 5000 kPa | 1004 | –
393.15 K, 7500 kPa | 1006 | –
393.15 K, 10000 kPa | 1008 | –
393.15 K, 12500 kPa | 1010 | –
393.15 K, 15000 kPa | 1012 | –
393.15 K, 17500 kPa | 1014 | –
393.15 K, 20000 kPa | 1016 | –
393.15 K, 22500 kPa | 1018 | –
393.15 K, 25000 kPa | 1020 | –
393.15 K, 27500 kPa | 1022 | –
393.15 K, 30000 kPa | 1024 | –
393.15 K, 32500 kPa | 1025 | –
393.15 K, 35000 kPa | 1027 | –
393.15 K, 37500 kPa | 1029 | –
413.15 K, 500 kPa | 979 | –
413.15 K, 1000 kPa | 979 | –
413.15 K, 2500 kPa | 981 | –
413.15 K, 5000 kPa | 983 | –
413.15 K, 7500 kPa | 986 | –
413.15 K, 10000 kPa | 988 | –
413.15 K, 12500 kPa | 990 | –
413.15 K, 15000 kPa | 993 | –
413.15 K, 17500 kPa | 995 | –
413.15 K, 20000 kPa | 997 | –
413.15 K, 22500 kPa | 999 | –
413.15 K, 25000 kPa | 1001 | –
413.15 K, 27500 kPa | 1003 | –
413.15 K, 30000 kPa | 1005 | –
413.15 K, 32500 kPa | 1007 | –
413.15 K, 35000 kPa | 1009 | –
413.15 K, 37500 kPa | 1011 | –
433.15 K, 500 kPa | 958 | –
433.15 K, 1000 kPa | 958 | –
433.15 K, 2500 kPa | 960 | –
433.15 K, 5000 kPa | 963 | –
433.15 K, 7500 kPa | 966 | –
433.15 K, 10000 kPa | 968 | –
433.15 K, 12500 kPa | 971 | –
433.15 K, 15000 kPa | 973 | –
433.15 K, 17500 kPa | 976 | –
433.15 K, 20000 kPa | 978 | –
433.15 K, 22500 kPa | 980 | –
433.15 K, 25000 kPa | 983 | –
433.15 K, 27500 kPa | 985 | –
433.15 K, 30000 kPa | 987 | –
433.15 K, 32500 kPa | 989 | –
433.15 K, 35000 kPa | 991 | –
433.15 K, 37500 kPa | 993 | –
453.15 K, 500 kPa | 936 | –
453.15 K, 1000 kPa | 937 | –
453.15 K, 2500 kPa | 939 | –
453.15 K, 5000 kPa | 942 | –
453.15 K, 7500 kPa | 945 | –
453.15 K, 10000 kPa | 948 | –
453.15 K, 12500 kPa | 951 | –
453.15 K, 15000 kPa | 953 | –
453.15 K, 17500 kPa | 956 | –
453.15 K, 20000 kPa | 959 | –
453.15 K, 22500 kPa | 961 | –
453.15 K, 25000 kPa | 964 | –
453.15 K, 27500 kPa | 966 | –
453.15 K, 30000 kPa | 969 | –
453.15 K, 32500 kPa | 971 | –
453.15 K, 35000 kPa | 973 | –
453.15 K, 37500 kPa | 976 | –
473.15 K, 500 kPa | 914 | –
473.15 K, 1000 kPa | 915 | –
473.15 K, 2500 kPa | 917 | –
473.15 K, 5000 kPa | 921 | –
473.15 K, 7500 kPa | 924 | –
473.15 K, 10000 kPa | 927 | –
473.15 K, 12500 kPa | 930 | –
473.15 K, 15000 kPa | 933 | –
473.15 K, 17500 kPa | 936 | –
473.15 K, 20000 kPa | 939 | –
473.15 K, 22500 kPa | 942 | –
473.15 K, 25000 kPa | 945 | –
473.15 K, 27500 kPa | 948 | –
473.15 K, 30000 kPa | 950 | –
473.15 K, 32500 kPa | 953 | –
473.15 K, 35000 kPa | 955 | –
473.15 K, 37500 kPa | 958 | –

Reference: the NIST ThermoML archive (doi:10.1021/acs.jced.9b00396)
